Results: patent publication US11680086B2, “Lipopeptide for potently inhibiting HIV, derivative thereof, pharmaceutical composition thereof and use thereof” (Institute of Pathogen Biology, Chinese Academy of Medical …, priority 2017, dated 2023)
Where two headings read alike, the source gives them in different places. Peptide text beside a SMILES is read from it. * marks the point of attachment. Stearoyl = CCCCCCCCCCCCCCCCCC(=O)*

Legend:
[1] = circular dichroism secondary structure analysis of the inhibitors themselves; assay type: physicochemical
[2] = molecular target: N39 (NHR-derived polypeptide of gp41) (Human immunodeficiency virus type 1 group M subtype B, UniProt P04578); assay type: binding, HIV-1; settings: 10 μM each, PBS pH 7.2
[3] = tested on: 35 HIV-1 pseudoviruses (subtypes A, B, B', C, G, A/C, A/E, B/C)
[4] = tested on: SIV pseudoviruses SIVpbj and SIV239; assay: inhibition of SIV pseudoviruses; assay type: cell-based
[5] = tested on: NL4-3 pseudovirus carrying T-20 resistance mutation site of NHR; assay: inhibition of T-20 resistant strains; assay type: cell-based, HIV-1; settings: strains with single or double mutations

N39 (NHR-derived polypeptide of gp41), sequence (P04578 528-566): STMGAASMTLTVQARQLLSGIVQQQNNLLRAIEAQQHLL

With `CCCCCCCCCCCCCCCCCC(=O)NCCCC[C@H](NC(=O)[C@H](CCC(=O)O)NC(=O)[C@H](CC(C)C)NC(=O)[C@H](CCCCN)NC(=O)[C@H](CCCCN)NC(=O)[C@H](CC(C)C)NC(=O)[C@H](CCC(=O)O)NC(=O)[C@H](CCC(=O)O)NC(=O)[C@H](CCC(=O)O)NC(=O)[C@H](CC(N)=O)NC(=O)[C@H](CCCCN)NC(=O)[C@H](CCCCN)NC(=O)[C@H](CCC(N)=O)NC(=O)[C@H](CCC(N)=O)NC(=O)[C@H](CCC(=O)O)NC(=O)[C@H](CCC(=O)O)NC(=O)[C@H](C)NC(=O)[C@H](CCCCN)NC(=O)[C@H](CCCCN)NC(=O)[C@H](CC(C)C)NC(=O)[C@H](CC(C)C)NC(=O)[C@H](CCC(=O)O)NC(=O)[C@H](CCC(=O)O)NC(=O)[C@@H](NC(=O)[C@H](CCCCN)NC(=O)[C@H](CCC(N)=O)NC(=O)[C@H](CCC(=O)O)NC(=O)[C@H](Cc1c[nH]c2ccccc12)NC(C)=O)[C@@H](C)CC)C(N)=O` [LP-80] (Ac-WEQKIEELLKKAEEQQKKNEEELKKLEK(Stearoyl)-NH2) the “secondary structure of the inhibitor itself (in words)” value ([1]; 10 μM, 20 μM and 40 μM in PBS) was “distinct helical structure”, the “helix content and Tm value of the inhibitor itself (in words)” value ([1]; among the four potent lipopeptides) was “the higher helix content and Tm value” and the “Tm value of the complex with N39” value [2] was 79 °C. For the same compound, the IC50 ([3]; read-out: IC50 for many strains, many individual strains of the 35 pseudoviruses) was less than 1 pM, the IC50 ([3]; read-out: average IC50 for inhibition of various types of HIV-1 pseudoviruses, average over 35 pseudoviruses) was 6 pM and the “inhibitory activity against different subtypes of HIV-1 as folds of T-20” value ([3]; relative to T-20, from average IC50) was 6902 folds. For the same compound, the “inhibitory activity against SIV (in words)” value [4] was “extremely potent inhibitory activity” and the “inhibitory activity against T-20 resistant strains (in words)” value [5] was “thousands to tens of thousands of times better than that of the LP-40”.
